Literature values as cited in PMC13231908, “Evaluating acridones as novel therapeutics for human babesiosis” (Antimicrobial Agents and Chemotherapy, 2026).

Details: mouse, in vivo, po, 80 mg/kg

Row | Structure (SMILES) | AUCinf [µg·h/mL] | AUClast [µg·h/mL]
2 | O=c1c2cc(F)c(Oc3ccc(OC(F)(F)F)cc3)cc2[nH]c2cc(Cl)cc(F)c12 [T226] | 0.0957 | 0.0339
